From PubChem BioAssay AID2060602 (Molecular Pharmacology Branch, DTP, NCI, 2025)
Several values for one entry are separate records, joined by “and”; a condition that tells them apart may be missing. Identical values can stand only once.

System: 648629-189-R-J1-PDC complex spheroids viability
Assay: Anticancer human tumor 648629-189-R-J1-PDC patient-derived bladder carcinoma cell line growth inhibition [CLK]
Settings: for viability, T/C: stronger effect = lower value; active means viability on the fitted dose curve at most 10% of control; inactive means the rest
Summary of the method: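 Patient-derived tumor cells grown as complex spheroids with HUVEC endothelial cells and mesenchymal stem cells, treated with drug combinations. Concentrations descend in half-log steps from near clinical Cmax, or from 10 microM if Cmax unknown.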

[1] = curve of first compound, second compound 0.0316 µM
[2] = curve of first compound, second compound 0.1 µM
[3] = curve of first compound, second compound 0.316 µM
[4] = curve of first compound, second compound 1 µM
[5] = curve of first compound, second compound 3.16 µM
[6] = curve of first compound, second compound 10 µM
[7] = second compound 0.0316 µM, first compound 0.00949 µM
[8] = second compound 0.0316 µM, first compound 0.03 µM
[9] = second compound 0.0316 µM, first compound 0.0949 µM
[10] = second compound 0.0316 µM, first compound 0.3 µM
[11] = second compound 0.1 µM, first compound 0.00949 µM
[12] = second compound 0.1 µM, first compound 0.03 µM
[13] = second compound 0.1 µM, first compound 0.0949 µM
[14] = second compound 0.1 µM, first compound 0.3 µM
[15] = second compound 0.316 µM, first compound 0.00949 µM
[16] = second compound 0.316 µM, first compound 0.03 µM
[17] = second compound 0.316 µM, first compound 0.0949 µM
[18] = second compound 0.316 µM, first compound 0.3 µM
[19] = second compound 1 µM, first compound 0.00949 µM
[20] = second compound 1 µM, first compound 0.03 µM
[21] = second compound 1 µM, first compound 0.0949 µM
[22] = second compound 1 µM, first compound 0.3 µM
[23] = second compound 3.16 µM, first compound 0.00949 µM
[24] = second compound 3.16 µM, first compound 0.03 µM
[25] = second compound 3.16 µM, first compound 0.0949 µM
[26] = second compound 3.16 µM, first compound 0.3 µM
[27] = second compound 10 µM, first compound 0.00949 µM
[28] = second compound 10 µM, first compound 0.03 µM
[29] = second compound 10 µM, first compound 0.0949 µM
[30] = second compound 10 µM, first compound 0.3 µM
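Wherever viability, T/C is given: drug exposure lasted seven days before viability readout; 100% = DMSO vehicle control wells.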

NC(=O)C(=Cn1cnc(-c2cc(C(F)(F)F)cc(C(F)(F)F)c2)n1)c1cncnc1 + CN1CCN(c2cc(C(=O)Nc3cc4cc(-c5cnn(C)c5)ccc4cn3)ccn2)CC1
53.3 nM: IC50 [2]
54.4 nM: IC50 [1]
inactive: viability, T/C [7] 113% | viability, T/C [8] 88.2% | viability, T/C [9] 14.3% | viability, T/C [11] 93.7% | viability, T/C [12] 87.7% | viability, T/C [13] 12.2% | viability, T/C [15] 14.6%
< 9.49 nM: IC50 [3] | IC50 [4] | IC50 [5] | IC50 [6]
active: viability, T/C [10] 2.66% | viability, T/C (second compound 0.0316 µM, first compound 0.949 µM) 1.8% | viability, T/C (second compound 0.0316 µM, first compound 3 µM) 1.61% | viability, T/C [14] 2.12% | viability, T/C (second compound 0.1 µM, first compound 0.949 µM) 0.68% | viability, T/C (second compound 0.1 µM, first compound 3 µM) 0.92% | viability, T/C [16] 11.7% | viability, T/C [17] 3% | viability, T/C [18] 0.3% | viability, T/C (second compound 0.316 µM, first compound 0.949 µM) 0.08% | viability, T/C (second compound 0.316 µM, first compound 3 µM) 1.52% | viability, T/C [19] 0.1% | viability, T/C [20] 0.12% | viability, T/C [21] 0.12% | viability, T/C [22] 0.07% | viability, T/C (second compound 1 µM, first compound 0.949 µM) 0.06% | viability, T/C (second compound 1 µM, first compound 3 µM) 0.63% | viability, T/C [23] 0.07% | viability, T/C [24] 0.1% | viability, T/C [25] 0.12% | viability, T/C [26] 0.12% | viability, T/C (second compound 3.16 µM, first compound 0.949 µM) 0.79% | viability, T/C (second compound 3.16 µM, first compound 3 µM) 0.75% | viability, T/C [27] 0.05% | viability, T/C [28] 0.08% | viability, T/C [29] 0.17% | viability, T/C [30] 0.2% | viability, T/C (second compound 10 µM, first compound 0.949 µM) 1.48% | viability, T/C (second compound 10 µM, first compound 3 µM) 0.19%

Nc1ccn(C2OC(CO)C(O)C2(F)F)c(=O)n1 (stereo not given) + CNC(=O)c1ccc(Nc2nc(OC3CCCC3)c3c(-c4ccc5nc(C)oc5c4)c[nH]c3n2)c(OC)c1
42.1 nM: IC50 [2]
< 31.6 nM: IC50 [3] | IC50 [4] | IC50 [5] | IC50 [6]
38.2 nM: IC50 [1]
inactive: viability, T/C (second compound 0.0316 µM, first compound 0.0316 µM) 56.8% | viability, T/C (second compound 0.0316 µM, first compound 0.1 µM) 16.1% | viability, T/C (second compound 0.1 µM, first compound 0.0316 µM) 58.7% | viability, T/C (second compound 0.1 µM, first compound 0.1 µM) 23.9% | viability, T/C (second compound 0.1 µM, first compound 0.316 µM) 10.1% | viability, T/C (second compound 0.316 µM, first compound 0.0316 µM) 18.1% | viability, T/C (second compound 0.316 µM, first compound 0.1 µM) 14.3% | viability, T/C (second compound 1 µM, first compound 0.0316 µM) 18.2% | viability, T/C (second compound 1 µM, first compound 0.1 µM) 13.3% | viability, T/C (second compound 1 µM, first compound 0.316 µM) 11.8% | viability, T/C (second compound 3.16 µM, first compound 0.0316 µM) 16.2% | viability, T/C (second compound 3.16 µM, first compound 0.1 µM) 14.8% | viability, T/C (second compound 3.16 µM, first compound 0.316 µM) 11.2% | viability, T/C (second compound 3.16 µM, first compound 1 µM) 11.7% | viability, T/C (second compound 10 µM, first compound 0.0316 µM) 18.1% | viability, T/C (second compound 10 µM, first compound 0.1 µM) 18% | viability, T/C (second compound 10 µM, first compound 0.316 µM) 14.7% | viability, T/C (second compound 10 µM, first compound 1 µM) 10.1%
active: viability, T/C (second compound 0.0316 µM, first compound 0.316 µM) 10.6% | viability, T/C (second compound 0.0316 µM, first compound 1 µM) 8.41% | viability, T/C (second compound 0.0316 µM, first compound 3.16 µM) 8.43% | viability, T/C (second compound 0.0316 µM, first compound 10 µM) 6.82% | viability, T/C (second compound 0.1 µM, first compound 1 µM) 8.46% | viability, T/C (second compound 0.1 µM, first compound 3.16 µM) 7.09% | viability, T/C (second compound 0.1 µM, first compound 10 µM) 5.88% | viability, T/C (second compound 0.316 µM, first compound 0.316 µM) 8.69% | viability, T/C (second compound 0.316 µM, first compound 1 µM) 7.21% | viability, T/C (second compound 0.316 µM, first compound 3.16 µM) 7.97% | viability, T/C (second compound 0.316 µM, first compound 10 µM) 6.5% | viability, T/C (second compound 1 µM, first compound 1 µM) 8.47% | viability, T/C (second compound 1 µM, first compound 3.16 µM) 9.1% | viability, T/C (second compound 1 µM, first compound 10 µM) 7.07% | viability, T/C (second compound 3.16 µM, first compound 3.16 µM) 11.2% | viability, T/C (second compound 3.16 µM, first compound 10 µM) 7.1% | viability, T/C (second compound 10 µM, first compound 3.16 µM) 9.44% | viability, T/C (second compound 10 µM, first compound 10 µM) 7.39%

COC1C=CCC(C)C(C)S(=O)(=O)NC(=O)c2ccc3c(c2)N(CC2CCC21)CC1(CCCc2cc(Cl)ccc21)CO3 (stereo not given)
1840 nM and 1650 nM: IC50 (curve of compound)
inactive: viability, T/C (compound 0.0316 µM) 102% and 92.4% | viability, T/C (compound 0.1 µM) 91% and 85% | viability, T/C (compound 0.316 µM) 77% and 89.5% | viability, T/C (compound 1 µM) 79% and 77.1% | viability, T/C (compound 3.16 µM) 25.9% and 15.1%
active: viability, T/C (compound 10 µM) 2.88% and 3.41%

CCN1CCN(Cc2ccc(Nc3ncc(F)c(-c4cc(F)c5nc(C)n(C(C)C)c5c4)n3)nc2)CC1
> 1000 nM: IC50 (curve of compound)
inactive: viability, T/C (compound 0.00316 µM) 104% and 106% | viability, T/C (compound 0.01 µM) 99.1% and 94.2% | viability, T/C (compound 0.0316 µM) 102% | viability, T/C (compound 0.1 µM) 101% and 93.4% | viability, T/C (compound 0.316 µM) 122% and 121% | viability, T/C (compound 1 µM) 124% and 117%

CC(C)CC(NC(=O)C(Cc1ccccc1)NC(=O)c1cnccn1)B(O)O (stereo not given) + CN1CCN(c2cc(C(=O)Nc3cc4cc(-c5cnn(C)c5)ccc4cn3)ccn2)CC1
inactive: viability, T/C (second compound 0.0316 µM, first compound 0.000949 µM) 116% | viability, T/C (second compound 0.0316 µM, first compound 0.003 µM) 79.8% | viability, T/C (second compound 0.1 µM, first compound 0.000949 µM) 94.9% | viability, T/C (second compound 0.1 µM, first compound 0.003 µM) 82.8% | viability, T/C (second compound 0.316 µM, first compound 0.000949 µM) 41.5% | viability, T/C (second compound 0.316 µM, first compound 0.003 µM) 18.5%
4.64 nM: IC50 [1]
< 0.949 nM: IC50 [3] | IC50 [4] | IC50 [5] | IC50 [6]
4.8 nM: IC50 [2]
active: viability, T/C [7] 0.91% | viability, T/C [8] 0.37% | viability, T/C [9] 0.28% | viability, T/C [10] 0.14% | viability, T/C [11] 2.63% | viability, T/C [12] 0.49% | viability, T/C [13] 0.17% | viability, T/C [14] 0.16% | viability, T/C [15] 0.32% | viability, T/C [16] 0.16% | viability, T/C [17] 0.15% | viability, T/C [18] 0.14% | viability, T/C (second compound 1 µM, first compound 0.000949 µM) 0.66% | viability, T/C (second compound 1 µM, first compound 0.003 µM) 0.93% | viability, T/C [19] 0.16% | viability, T/C [20] 0.1% | viability, T/C [21] 0.17% | viability, T/C [22] 0.8% | viability, T/C (second compound 3.16 µM, first compound 0.000949 µM) 0.08% | viability, T/C (second compound 3.16 µM, first compound 0.003 µM) 2.07% | viability, T/C [23] 0.1% | viability, T/C [24] 0.08% | viability, T/C [25] 1.36% | viability, T/C [26] 1.67% | viability, T/C (second compound 10 µM, first compound 0.000949 µM) 0.06% | viability, T/C (second compound 10 µM, first compound 0.003 µM) 1.03% | viability, T/C [27] 0.12% | viability, T/C [28] 0.11% | viability, T/C [29] 2.27% | viability, T/C [30] 1.33%
